Active and inactive are the calls of the source. No cut-off for these calls is given here.
Tests used:
Mus musculus [1] = assay: Neuroprotective activity in scopolamine-induced cognitive deficit mouse assessed as improvement in memory impairment at 5.9 mg/kg, IG in presence of donepezil at 5.0 mg/kg; assay type: functional, organism-based
[2] = Metal chelating activity assessed as AL3+-compound complex by measuring enhancement of absorption intensity at 246 nm by UV-visible spectrophotometry
[3] = target: Amyloid-beta precursor protein (Homo sapiens) (UniProt P05067); assay: Inhibition of Cu2+ induced amyloid beta (1 to 42 residues) (unknown origin) aggregation at 25 uM relative to control
Chain of Amyloid-beta precursor protein (Homo sapiens) (P05067 whole entry, the tested form may be a part): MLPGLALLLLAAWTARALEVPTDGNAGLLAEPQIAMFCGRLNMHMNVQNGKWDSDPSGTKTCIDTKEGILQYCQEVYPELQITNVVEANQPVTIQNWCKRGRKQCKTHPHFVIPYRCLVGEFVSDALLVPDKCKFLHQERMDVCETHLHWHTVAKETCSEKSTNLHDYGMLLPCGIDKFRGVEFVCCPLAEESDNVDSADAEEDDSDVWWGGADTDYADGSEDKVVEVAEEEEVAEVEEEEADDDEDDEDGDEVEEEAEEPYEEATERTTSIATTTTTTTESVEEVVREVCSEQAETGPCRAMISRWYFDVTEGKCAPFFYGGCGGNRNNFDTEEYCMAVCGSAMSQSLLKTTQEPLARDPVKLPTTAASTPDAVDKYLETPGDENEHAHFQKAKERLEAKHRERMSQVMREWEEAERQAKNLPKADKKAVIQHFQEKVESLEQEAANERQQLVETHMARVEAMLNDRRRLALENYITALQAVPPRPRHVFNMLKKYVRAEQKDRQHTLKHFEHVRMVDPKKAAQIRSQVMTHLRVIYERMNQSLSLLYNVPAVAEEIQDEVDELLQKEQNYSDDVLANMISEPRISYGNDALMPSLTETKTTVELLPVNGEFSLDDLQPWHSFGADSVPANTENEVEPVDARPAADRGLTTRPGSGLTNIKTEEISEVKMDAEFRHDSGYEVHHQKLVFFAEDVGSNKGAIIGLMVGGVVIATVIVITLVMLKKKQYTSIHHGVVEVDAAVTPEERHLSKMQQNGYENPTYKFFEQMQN

[4] = Metal chelating activity assessed as Cu2+-compound complex by measuring enhancement of absorption intensity at 246 nm by UV-visible spectrophotometry
[5] = target: Amyloid-beta precursor protein (Homo sapiens) (UniProt P05067); assay: Inhibition of Cu2+ induced amyloid beta (1 to 42 ) (unknown origin) aggregation assessed as fibrils incubated for 24 hrs by compound addition incubated for 24 hrs
[6] = Metal chelating activity assessed as Zn2+-compound complex by measuring enhancement of absorption intensity at 246 nm by UV-visible spectrophotometry
[7] = target: Amyloid-beta precursor protein (Homo sapiens) (UniProt P05067); assay: Inhibition of Cu2+ induced amyloid beta (1 to 42 residues) (unknown origin) assessed as disaggregation at 25 uM relative to control; parameters: scale not given: the % may be the effect or the level left
[8] = Drug concentration in mouse brain at 30 mg/kg administered intragastrically measured after 0.5 hrs; assay type: ADME, organism-based; details: po, route ig, read-out: Ct
[9] = Drug concentration in mouse plasma at 30 mg/kg administered intragastrically measured after 0.5 hrs; assay type: ADME, organism-based; details: po
Mus musculus [10] = assay: Antialzheimer activity against scopolamine-induced cognitive deficit mouse model assessed as increase in vitality of SOD at 2.0 mg/kg, IG by step-through passive avoidance test; assay type: functional
Mus musculus [11] = assay: Antialzheimer activity against scopolamine-induced cognitive deficit mouse model assessed as increase in vitality of SOD at 17.7 mg/kg, IG by step-through passive avoidance test; assay type: functional
[12] = target: Amyloid-beta precursor protein (Homo sapiens) (UniProt P05067); assay: Inhibition of amyloid beta (1 to 42 ) (unknown origin) self-induced aggregation assessed as reduction in number of amyloid beta (1 to 42 residues) fibrils at 25 uM incubated for 24 hrs by Thioflavin T based fluorometric assay
[13] = Metal chelating activity assessed as Fe2+-compound complex by measuring enhancement of absorption intensity at 246 nm by UV-visible spectrophotometry
Mus musculus [14] = assay: Antialzheimer activity against scopolamine-induced cognitive deficit mouse model assessed as decrease in lipid peroxidation at 2.0 mg/kg, IG by step-through passive avoidance test; assay type: functional
[15] = Ratio of drug concentration in brain to plasma of mouse at 30 mg/kg administered intragastrically measured after 0.5 hrs; assay type: ADME, organism-based; details: po, route ig, read-out: logBB (converted)
[16] = target: Amyloid-beta precursor protein (Homo sapiens) (UniProt P05067); assay: Inhibition of Cu2+ induced amyloid beta (1 to 42 ) (unknown origin) aggregation assessed as fibrils formation at 25 uM pre incubated for 24 hrs followed by compound addition incubated for another 24 hrs by Thioflavin T based fluorometric assay
Acetylcholinesterase = Acetylcholinesterase (Electrophorus electricus, UniProt O42275); assay: Inhibition of electric eel AChE by Ellman's method; details: read-out: IC50
Chain of Acetylcholinesterase (O42275 whole entry): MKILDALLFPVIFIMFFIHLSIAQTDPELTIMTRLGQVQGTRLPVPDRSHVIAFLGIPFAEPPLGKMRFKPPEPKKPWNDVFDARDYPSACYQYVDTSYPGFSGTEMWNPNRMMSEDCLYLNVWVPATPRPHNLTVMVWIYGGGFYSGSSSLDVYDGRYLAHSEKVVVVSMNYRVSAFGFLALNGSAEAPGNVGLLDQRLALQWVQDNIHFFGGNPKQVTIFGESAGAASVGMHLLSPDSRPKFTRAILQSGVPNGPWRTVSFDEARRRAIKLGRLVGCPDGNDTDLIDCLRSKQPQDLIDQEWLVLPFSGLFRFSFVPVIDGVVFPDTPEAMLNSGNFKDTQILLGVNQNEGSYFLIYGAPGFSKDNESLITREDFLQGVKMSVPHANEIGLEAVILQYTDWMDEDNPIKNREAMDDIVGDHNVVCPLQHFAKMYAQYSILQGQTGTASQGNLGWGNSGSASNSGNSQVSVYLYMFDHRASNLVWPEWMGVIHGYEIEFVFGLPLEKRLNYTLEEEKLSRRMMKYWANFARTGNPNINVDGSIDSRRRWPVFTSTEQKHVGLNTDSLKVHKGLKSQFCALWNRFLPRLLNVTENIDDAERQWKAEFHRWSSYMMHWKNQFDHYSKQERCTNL

Mus musculus [17] = assay: Antialzheimer activity against scopolamine-induced cognitive deficit mouse assessed as improvement in memory impairment by measuring latency time administrated intragastric by step-through passive avoidance test; assay type: functional, organism-based; details: dose 2-17.7 mg/kg, route ig, DDE = dose-dependent effect
BV-2 [18] = assay: Anti-neuroinflammation activity in mouse BV-2 cells assessed as decrease in LPS-induced TNF-alpha production at 10 uM by ELISA; assay type: functional; parameters: scale not given: the % may be the effect or the level left
Mus musculus [19] = assay: Antialzheimer activity against scopolamine-induced cognitive deficit mouse model assessed as increase in AChE content at 17.7 mg/kg, IG by step-through passive avoidance test; assay type: functional
Mus musculus [20] = assay: Antialzheimer activity against scopolamine-induced cognitive deficit mouse model assessed as decrease in lipid peroxidation at 17.7 mg/kg, IG by step-through passive avoidance test; assay type: functional
[21] = target: Amyloid-beta precursor protein (Homo sapiens) (UniProt P05067); assay: Inhibition of self-induced amyloid beta (1 to 42) (unknown origin) aggregation by Thioflavin T based fluorometric assay relative to control; parameters: concentration or dose not given beside the values; details: concentration not given here
[22] = target: Amyloid-beta precursor protein (Homo sapiens) (UniProt P05067); assay: Inhibition of Cu2+ induced amyloid beta (1 to 42 residues) (unknown origin) aggregation; details: concentration not given here
BV-2 [23] = assay: Anti-neuroinflammation activity in mouse BV-2 cells assessed as decrease in LPS-induced TNFalpha production at 2.5 uM by ELISA; assay type: functional; parameters: scale not given: the % may be the effect or the level left
[24] = Antioxidant activity of compound assessed as trolox equivalent of ORAC radical scavenging activity by ORAC-FL assay; assay type: functional
Mus musculus [25] = assay: Antialzheimer activity against scopolamine-induced cognitive deficit mouse model assessed as increase in AChE content at 5.9 mg/kg, IG by step-through passive avoidance test; assay type: functional
BV-2 [26] = assay: Anti-neuroinflammation activity in mouse BV-2 cells assessed as decrease in LPS-induced TNFalpha production at 0.5 uM by ELISA; assay type: functional; parameters: scale not given: the % may be the effect or the level left
Mus musculus [27] = assay: Antialzheimer activity against scopolamine-induced cognitive deficit mouse model assessed as decrease in lipid peroxidation at 5.9 mg/kg, IG by step-through passive avoidance test; assay type: functional
[28] = Neurotoxicity in scopolamine-induced cognitive deficit mouse model measured after re-increasement at 2.0 to 17.7 mg/kg, IG; assay type: toxicity, organism-based; details: in vivo, po, dose 2-17.7 mg/kg
[29] = Metal chelating activity assessed as Fe3+-compound complex by measuring enhancement of absorption intensity at 246 nm by UV-visible spectrophotometry
[30] = target: Amyloid-beta precursor protein (Homo sapiens) (UniProt P05067); assay: Inhibition of self-induced amyloid beta (1 to 42) (unknown origin) disaggregation by Thioflavin T based fluorometric assay relative to control; parameters: concentration or dose not given beside the values; details: concentration not given here
[31] = test system: Butyrylcholinesterase (Rattus norvegicus); assay: Inhibition of rat serum BuChE at 10 uM by Ellman's method relative to control
BV-2 [32] = assay: Anti-neuroinflammation activity in mouse BV-2 cells assessed as decrease in LPS-induced TNF-alpha production at 0.5 uM by ELISA; assay type: functional; parameters: scale not given: the % may be the effect or the level left; details: time 24 hrs
[33] = target: Amyloid-beta precursor protein (Homo sapiens) (UniProt P05067); assay: Inhibition of Cu2+ induced amyloid beta (1 to 42 residues) (unknown origin) disaggregation; details: concentration not given here
[34] = Permeability of the compound in PBS/EtOH buffer (70:30) by PAMPA-BBB assay; assay type: ADME; details: read-out: permeability
BV-2 [35] = assay: Anti-neuroinflammation activity in mouse BV-2 cells assessed as decrease in LPS-induced TNFalpha production at 10 uM by ELISA; assay type: functional; parameters: scale not given: the % may be the effect or the level left
[36] = target: Amyloid-beta precursor protein (Homo sapiens) (UniProt P05067); assay: Inhibition of amyloid beta (1 to 42 ) (unknown origin) self-induced amyloid beta (1 to 42 ) disaggregation at 25 uM pre incubated for 24 hrs to form fibril followed by compound addition incubated for another 24 hrs by Thioflavin T based fluorometric assay
Mus musculus [37] = assay: Antialzheimer activity against scopolamine-induced cognitive deficit mouse model assessed as increase in vitality of SOD at 5.9 mg/kg, IG by step-through passive avoidance test; assay type: functional
[38] = Inhibition of reactive oxygen species production using Cu-ascorbate redox system by coumarin-3-carboxylic acid dye based fluorescence analysis; assay type: functional
Mus musculus [39] = assay: Antialzheimer activity against scopolamine-induced cognitive deficit mouse assessed as improvement in memory impairment by measuring reduction in number of errors administrated intragastric by step-through passive avoidance test; assay type: functional, organism-based; details: dose 2-17.7 mg/kg, route ig, DDE = dose-dependent effect
BV-2 [40] = assay: Anti-neuroinflammation activity in mouse BV-2 cells assessed as decrease in LPS-induced TNF-alpha production at 2.5 uM by ELISA; assay type: functional; parameters: scale not given: the % may be the effect or the level left; details: time 24 hrs

With `CCN(CCCCCCn1nc(-c2cc(N(C)C)ccc2O)ccc1=O)Cc1ccccc1N(C)C` the Activity (Mus musculus [1]) was “Active”, the Activity [2] was “Active” and the inhibition [3] was 99.6%. For the same compound, the Activity [4] was “Active”, the Activity [5] was “Active” and the Activity [6] was “Active”. It also gave an Activity [7] of 94.8%, a concentration at 0.5 h [8] of 82.9 ng/g and a concentration at 0.5 h [9] of 324 ng/mL. For the same compound, the Activity (Mus musculus [10]) was 131.33 U/mg, the Activity (Mus musculus [11]) was 161.02 U/mg and the inhibition [12] was “Active”. The Activity [13] was “Active”, the Activity (Mus musculus [14]) was 2.73 nmol/mg and the Kp at 0.5 h [15] was 0.245. The Activity [16] was “Active”, the IC50 (Acetylcholinesterase) was 200 nM and the Activity (Mus musculus [17]) was “Dde”. The Activity (BV-2 [18]) was 73.7%, the Activity (Mus musculus [19]) was 30.3 µg/mg and the Activity (Mus musculus [20]) was 2.04 nmol/mg. It also gave an inhibition [21] of 99.1%, an inhibition [22] of 2.18% and an Activity (BV-2 [23]) of 46.8%. The Activity [24] was 3.03, the Activity (Mus musculus [25]) was 27.3 µg/mg and the Activity (BV-2 [26]) was 35.4%. For the same compound, the Activity (Mus musculus [27]) was 2.33 nmol/mg, the Activity [28] was “Non-Toxic” and the Activity [29] was “Active”. The inhibition [30] was 89%, the inhibition [31] was 18.2% and the Activity (BV-2 [32]) was 26.3%. The inhibition [33] was 1.17%, the Papp at 16 h [34] was 13.5 ×10⁻⁶ cm/s and the Activity (BV-2 [35]) was 70.2%. The inhibition [36] was “Active”, the Activity (Mus musculus [37]) was 146.67 U/mg and the inhibition [38] was “Active”. For the same compound, the Activity (Mus musculus [39]) was “Dde” and the Activity (BV-2 [40]) was 52.6%.

— ChEMBL document CHEMBL5131437, “Development of novel 2-aminoalkyl-6-(2-hydroxyphenyl)pyridazin-3(2H)-one derivatives as balanced multifunctional agents against Alzheimer's disease” (Eur J Med Chem, 2022)
